Assay results taken from patent US20070202547A1, “Methods For Detecting Substances Which Bind To The Amyloid Precursor Protein Or Beta Amyloid Fragments, And Binding Compounds” (priority 2004, published 2007).

Key:
Type in all cases: biochemical
BACE2 [1] = test: BACE2 cleavage of EV amyloid / Aβ (mass spectrometric analysis); conditions: 100 μM, result in words
Protocol: The effect of inhibition of BACE 2 cleavage of EV amyloid was assayed using a protocol described in Shi et al, 2003, J. Biol. Chem., 278:21286-21294. The results of assaying Examples 1-4 at 100 μM are shown below: […]

BACE2 [2] = biological target: T1, BACE2 (Homo sapiens, UniProt P05067, K670N/M671F/D672E/A673V); test: BACE2 cleavage of APP at the beta-secretase cleavage site (ALPHA); conditions: result in words
T1 construct: IC50, BACE2 cleavage of APP at the beta-secretase cleavage site; other: MBP-biotinylated APP fusion protein with NFEV s; activity against BACE2 cleavage of APP at the beta-secretase position; other: result in words; biotin label
Protocol: (§1) The effect of Examples 1-4 on cleavage of APP at the beta-secretase cleavage site was assayed as follows:
(§2) • 25 μL 0.2 M Sodium Acetate, pH 4.5 • 10 μL 10× protease inhibitor cocktail (Roche, cat # 1836153) • 10 μL Bovine Serum Albumin (1 mg/mL solution) • 4 μL 5% CHAPS • 1 μL EDTA (150 mM, pH 4.5) • 2 μL DF • 4 μL MBP(Maltose binding protein)—biotininylated APP fusion protein containing the NFEV BACE cleavage site (bacterially expressed, 10 μM solution) • 1 μL DMSO or compound dissolved in DMSO • 2 μL BACE2 (CHO cell expressed protein, 250 nM) • 41 μL distilled water The reactions were incubated at 37° C. for 30 minutes, and were then quenched with 4 μL 1 M TrisHCl, pH 8.0. Detection of MBP Biotin APP(NF) Cleavage Product using ALPHA ALPHA Assay Mix was Prepared as Follows: • 20 μL Streptavidin Donor Beads (from AlphaScreen General IgG (Protein A) Detection Kit Perkin Elmer Life Sciences); 10,000 pts (Part Number 6760617M) • 20 μL Protein A Acceptor beads (from AlphaScreen General IgG (Protein A) Detection Kit Perkin Elmer Life Sciences); 10,000 pts (Part Number 6760617M) • 3.7 μL Affinity purified anti-NF antibody (203 μg/mL) (described in WO 02/094985) • 4.5 mL 0.1% BSA in PBS • 4 μL of quenched reaction mixture was combined with 46 μL of the assay mix. The reactions were incubated at room temperature overnight and read using the ALPHAQuest plate reader.

BACE2 [3] = biological target: T2, BACE2 (Homo sapiens, UniProt P05067, A673V/D672E/K670N/M671F); test: as above; conditions: MBP-biotinylated APP fusion protein with NFEV site, pH 4.5, 30 minutes
T2 construct: IC50, BACE2 cleavage of APP at the beta-secretase cleavage site; other: MBP-biotinylated APP fusion protein with NFEV s; activity against BACE2 cleavage of APP at the beta-secretase position; other: result in words; biotin label
Protocol: as §1, §2

BACE1 [4] = test: BACE1 cleavage of full-length APP or beta-site P5/P5' peptide (FIG. 3); conditions: relative to DMSO-treated
Description: (§3) FIG. 3(A) depicts inhibition by Statine-Val, which is a known inhibitor of BACE cleavage of both APP and APP fragments, including the beta-site P5/P5′ peptide fragment. […] depicts inhibition by Example 4. The graphs depict inhibition of cleavage of a full-length APP substrate (∘) or the beta-site P5/P5 fragment. (□). Enzymatic activity is shown relative to DMSO-treated BACE cleavage.

BACE1 [5] = biological target: BACE1 (Homo sapiens, UniProt P56817); test: as above; conditions: relative to DMSO-treated
Chain of BACE1 (Homo sapiens, UniProt P56817) (P56817 46-501): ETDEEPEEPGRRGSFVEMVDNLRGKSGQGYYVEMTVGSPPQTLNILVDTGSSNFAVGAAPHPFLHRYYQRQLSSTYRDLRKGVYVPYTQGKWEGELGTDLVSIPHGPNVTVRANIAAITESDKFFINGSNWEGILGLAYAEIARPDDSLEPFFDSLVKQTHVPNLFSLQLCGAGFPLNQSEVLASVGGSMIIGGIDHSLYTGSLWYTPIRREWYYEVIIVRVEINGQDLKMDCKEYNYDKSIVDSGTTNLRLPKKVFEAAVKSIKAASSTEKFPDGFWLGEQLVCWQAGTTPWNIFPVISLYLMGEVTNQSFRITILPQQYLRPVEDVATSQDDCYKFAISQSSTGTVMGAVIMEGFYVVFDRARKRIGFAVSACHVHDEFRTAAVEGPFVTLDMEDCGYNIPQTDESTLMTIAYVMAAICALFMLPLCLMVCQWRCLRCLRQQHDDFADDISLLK
Description: as §3

gamma-secretase = gamma-secretase (Homo sapiens, UniProt P05067); test: Gamma-secretase cleavage of CTFβ substrate (HeLa cell membrane extract); conditions: Aβ40 detection with 6E-10/G2-10, read-out: CTFβ CLEAVAGE AT POSITION 40
Protocol: Accordingly, Examples 1-4 were tested for their ability to inhibit gamma-secretase cleavage of both a full-length CTFβ substrate, as described in Li, 2000, Proc. Natl Acad Sci. 97:6138-6143. The assays were carried out as follows:
Inhibition of CTFβ Cleavage
• 10 μL 10× protease inhibitor cocktail (Roche, cat # 1836153) • 25 μL 4× Buffer (50 mM PIPES pH7.0, 150 mM KCl, 5 mM MgCl2, 5 mM CaCl2) • 2 μL 10% CHAPSO • 5 μL HeLa cell membrane extract characterized for gamma-secretase activity • 7 μL 25 μM bacterially expressed CTFβ • 51 μL water • 1 μL compound in DMSO The reactions were incubated at 37° C. for 150 min and quenched with 25 μL 5× RIPA buffer (750mM NaCl, 5% NP-40, 2.5% DOC, 0.5% SDS, 250 mM Tris H8.0). Detection:
Gamma-secretase cleavage of the CTFβ substrate was assessed by incubating 50 μL of the reaction with 25 μL of 4 μg/mL biotinylated antibody 6E-10 which is specific for the N-terminal region of Aβ, and 25 μL of 1.5 μg/mL of a ruthinylated antibody G2-10, which is specific to the C-terminal region of Aβ40. The C-terminal region is present only after gamma secretase cleavage of Aβ. The antibodies were allowed to bind overnight at room temperature. The following day, 25 μL of 80 μg/mL streptavidin-coated Dynabeads (M-280) were added to each reaction, allowed to bind for 30 minutes, and quenched with 275 μL IGEN assay buffer. Quantification of the gamma-secretase cleavage products was carried out using an Origen Analyzer.

| SMILES | effect on BACE2 cleavage at all Aβ sites (BACE2 [1]; FIG. 1) | effect on BACE2 cleavage at position 34 (BACE2 [1]) | effect on BACE2 cleavage at positions 19 and 20 (BACE2 [1]) | activity against BACE2 cleavage of APP at the beta-secretase position (BACE2 [2]) | IC50 (BACE2 [3]) | inhibition of BACE1 cleavage of full-length APP substrate (BACE1 [4]) | inhibition of BACE1 cleavage of beta-site P5/P5' peptide fragment (BACE1 [5]) | IC50 (gamma-secretase) |
| --- | --- | --- | --- | --- | --- | --- | --- | --- |
| Oc1cc2c(cc1CCCOc1ccc(-c3nnn[nH]3)cc1Cl)OC(CCc1ccccc1)C2 (stereo not drawn) [Example 4, 6-{3-[2-chloro-4-(1H-tetrazol-5-yl)phenoxy]propyl}-2-(2-phenylethyl)-2,3-dihydro-1benzofuran-5-oI] | suppressed cleavage at all Aβ sites | blocked cleavage at position 34 | enhanced cleavage of Aβ at positions 19 and 20 | capable of inhibiting BACE2 cleavage of APP at the beta-secretase position with similar effectiveness to their inhibition of BACE1 cleavage at the same site | 20 µM | inhibits cleavage of APP only | inhibits cleavage of APP only | – |
| O=C(O)COc1ccc2c(c1)CC(CCc1ccccc1)O2 (stereo not drawn) [Example 3] | – | – | – | – | ~100 µM | – | – | 49 µM |
